Test results: ChEMBL document CHEMBL1122800, “Synthesis of a tricyclic aphidicolin analogue that inhibits DNA synthesis in vitro” (J Med Chem, 1984)
Active and inactive are the calls of the source. The calls are words filed in the database; no cut-off is given here.

What follows are compounds tested on Nucleic Acid (assay: Ability of compound to inhibit DNA synthesis against the uptake of [3H]thymidine in freshly seeded cultures of SV-40 transformed WI-38 human lung fibroblast at a concentration 0.15 ug/mL.).

SMILES | inhibition [%]
C[C@@]1(CO)C(O)CC[C@]2(C)C3CC(O)CC3CC[C@@H]12 (some centres not stated) | 50
C[C@@]1(CO)[C@H](O)CC[C@@]2(C)[C@H]1CC[C@H]1C[C@@H]3C[C@@]12CC[C@]3(O)CO | 50

What follows are compounds tested on Nucleic Acid (assay: Ability of compound to inhibit DNA synthesis against the uptake of [3H]thymidine in freshly seeded cultures of SV-40 transformed WI-38 human lung fibroblast; NA = no activity).

SMILES | inhibition
C[C@]12CCC(O)[C@@](C)(CO)[C@@H]1CCC1C[C@H](O)C[C@@H]12 (some centres not stated) | inactive
C[C@]12CCC(O)[C@@](C)(CO)[C@@H]1CCC1CC(=O)C=C12 (some centres not stated) | inactive
C[C@]12CCC(O)[C@@](C)(CO)[C@@H]1CCC1CC(=O)C[C@@H]12 (some centres not stated) | inactive
C[C@@]1(CO)C(O)CC[C@]2(C)C3CC(=O)CC3CC[C@@H]12 (some centres not stated) | inactive
C[C@]12CCC(O)[C@@](C)(CO)[C@@H]1CCC1CC(O)C=C12 (some centres not stated) | inactive
